For one molecule, Ki results are on record in ChEMBL document CHEMBL5725824, “Aminochromane, aminothiochromane and amino-1,2,3,4-tetrahydroquinoline derivatives, pharmaceutical compositions containing them, and their use in therapy” (2017).

The structures appear in SMILES notation.

The target of the assay is Sodium- and chloride-dependent glycine transporter 1 (Homo sapiens) (UniProt P48067). The assay is described as follows: Radioligand Binding Assay: 1. [3H]-Glycine uptake into recombinant CHO cells expressing human GlyT1: Human GlyT1c expressing recombinant hGlyT1c_5_CHO cells were plated at 20,000 cells per well in 96 well Cytostar-T scintillation microplates (Amersham Biosciences) and cultured to sub-confluency for 24 h. For glycine uptake assays the culture medium was aspirated and the cells were washed once ….
Chain of Sodium- and chloride-dependent glycine transporter 1 (Homo sapiens) (P48067 whole entry, looked up): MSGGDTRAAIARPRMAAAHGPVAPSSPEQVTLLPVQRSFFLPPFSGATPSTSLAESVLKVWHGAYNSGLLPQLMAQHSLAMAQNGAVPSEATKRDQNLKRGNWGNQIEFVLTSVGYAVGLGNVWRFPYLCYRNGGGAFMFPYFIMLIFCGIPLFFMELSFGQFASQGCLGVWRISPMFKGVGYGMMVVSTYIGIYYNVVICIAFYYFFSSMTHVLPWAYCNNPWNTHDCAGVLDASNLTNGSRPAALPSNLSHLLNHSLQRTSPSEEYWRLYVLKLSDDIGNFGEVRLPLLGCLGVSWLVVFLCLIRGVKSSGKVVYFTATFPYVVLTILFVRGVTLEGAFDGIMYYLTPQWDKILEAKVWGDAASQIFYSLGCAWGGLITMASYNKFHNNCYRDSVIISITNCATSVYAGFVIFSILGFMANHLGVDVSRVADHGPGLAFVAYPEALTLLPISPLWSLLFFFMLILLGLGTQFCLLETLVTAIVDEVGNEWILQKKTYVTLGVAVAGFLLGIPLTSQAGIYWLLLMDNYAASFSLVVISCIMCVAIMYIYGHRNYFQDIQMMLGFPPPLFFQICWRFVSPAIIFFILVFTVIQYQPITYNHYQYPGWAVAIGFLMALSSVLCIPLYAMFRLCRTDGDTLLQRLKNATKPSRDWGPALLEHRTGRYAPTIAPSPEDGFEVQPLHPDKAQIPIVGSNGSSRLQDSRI

By Ki is commonly meant the dissociation constant of the complex between target and ligand, obtained from inhibition or displacement. For `CNC1COc2ccc(N3CC(NS(=O)(=O)CC4CC4)C3)cc2C1Cc1ccccc1` (cis isomer), the Ki was under 10 nM.
